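Compound exposure: 48 hours, 5 concentrations, 96-well plates. Here, GI50 denotes the concentration required for 50% inhibition of growth. The concentration for full growth arrest is given as TGI.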
Tests used:
Assay in all cases: NCI-60 cell line screen, 48 h
[1] = tested on: OVCAR-5 ovarian
[2] = tested on: A549 NSCLC
[3] = tested on: SF-268 CNS
[4] = tested on: CCRF-CEM leukemia
[5] = tested on: NCI-H522 lung
[6] = tested on: HCC-2998 colon
[7] = tested on: MOLT-4 leukemia
[8] = tested on: NCI-H23 lung
[9] = tested on: RXF 393 renal
[10] = tested on: DU-145 prostate

| SMILES | GI50 [1] [µM] | TGI [1] [µM] | GI50 [2] [µM] | TGI [2] [µM] | GI50 [3] [µM] | TGI [3] [µM] | GI50 [4] [µM] | TGI [4] [µM] | GI50 [5] [µM] | TGI [5] [µM] | GI50 [6] [µM] | TGI [6] [µM] | GI50 [7] [µM] | TGI [7] [µM] | TGI [8] [µM] | TGI [9] [µM] | GI50 [8] [µM] | GI50 [10] [µM] | TGI [10] [µM] |
| --- | --- | --- | --- | --- | --- | --- | --- | --- | --- | --- | --- | --- | --- | --- | --- | --- | --- | --- | --- |
| C=C1[C@@H](O)O[C@H]2[C@H]1C[C@H](OC(C)=O)[C@]13C(=O)O[C@H]4C[C@](C)(O)[C@H]([C@H]41)C31C=C(C)[C@]2(O)O1 | 21.7 | 48 | > 100 | > 100 | 34.5 | > 100 | 18.9 | > 100 | 4.53 | 21.4 | 22.5 | 76.2 | 80.6 | > 100 | – | – | – | – | – |
| CC1=C(CC2C(=O)N(c3ccccc3)S(=O)(=O)NC2C)C(=O)N(c2ccccc2)S(=O)(=O)N1C (stereo not drawn) | – | > 100 | – | > 100 | – | > 100 | – | > 100 | – | > 100 | – | > 100 | – | > 100 | > 100 | – | – | – | – |
| Cc1ccccc1-n1c(N)c(-c2nc3ccccc3[nH]2)sc1=S | – | > 100 | – | 71.3 | – | 69.6 | – | > 100 | – | 50.3 | – | 34.8 | – | 70.6 | 45.4 | 62.4 | – | – | – |
| O=C1C=C(O)C(=Cc2c(O)cc(O)cc2O)C(O)=C1 | – | > 100 | – | > 100 | – | > 100 | – | > 100 | – | > 100 | – | > 100 | – | > 100 | > 100 | > 100 | – | – | – |
| O=C(NCCNCCO)c1cccc2ccc(-c3ccccc3)nc12 | – | 18.2 | – | 12.8 | – | 19 | – | 27.1 | – | – | – | 17.1 | – | – | 15.3 | 15.5 | – | – | – |
| COC(=O)C(C(=O)C(=O)Nc1ccc([N+](=O)[O-])cc1)c1nc2ccc([N+](=O)[O-])cc2[nH]c1=O (stereo not drawn) | – | > 100 | – | > 100 | – | > 100 | – | > 100 | – | > 100 | – | > 100 | – | > 100 | > 100 | > 100 | – | – | – |
| N[C@H](COCc1ccccc1)c1ccccc1 | – | 87.2 | – | > 100 | – | > 100 | – | 56.6 | – | 39.1 | – | > 91.7 | – | 45.7 | 57.5 | > 72.6 | – | – | – |
| COc1ccc(OC(=O)CC2Cc3cc(OC)c(OC)c(OC)c3-c3ccc(SC)c(=O)cc32)cc1 (stereo not drawn) | – | – | – | > 100 | – | > 100 | – | 10.1 | – | 0.527 | – | 0.503 | – | > 100 | 14.9 | – | – | – | – |
| C/C(=N\O)c1cccc(Nc2cc(-n3ccnc3)c3ccccc3n2)c1 | 20.9 | 40.9 | – | – | > 100 | > 100 | 24.9 | 64.5 | 14.3 | 30.7 | 17.3 | 31.7 | 12.6 | 37.5 | 33.6 | – | 16.7 | 18.9 | 35.8 |
| N#CCN1C(=O)c2cc([N+](=O)[O-])cc3cc([N+](=O)[O-])cc(c23)C1=O | – | 36.1 | – | 43.8 | – | 48.8 | – | 17.7 | – | – | – | 29.2 | – | > 22.8 | 32.9 | 21.3 | – | – | – |
| Cc1ccc(NC(=O)C(=O)C(C(=O)/C=C/c2ccccc2)C2OC(=O)c3ccccc32)c(C)c1 (stereo not drawn) | – | > 100 | – | > 100 | – | > 100 | – | > 100 | – | > 100 | – | > 100 | – | > 100 | > 100 | > 100 | – | – | – |
| Cc1cc(=O)c2c(O)cc3c(c2o1)CC=C(COC1OC(COC2OC(CO)C(O)C(O)C2O)C(O)C(O)C1O)CO3 (stereo not drawn) | – | > 100 | – | > 100 | – | > 100 | – | > 100 | – | > 100 | – | > 100 | – | > 100 | > 100 | – | – | – | – |
| CC1=NN(c2ccccc2)C(=O)/C1=C\c1ccc([N+](=O)[O-])cc1 | – | 50.8 | – | > 100 | – | > 100 | – | 49.5 | – | 57.9 | – | 63.2 | – | 48.4 | 91 | 41.4 | – | – | – |
| c1ccc2c(c1)CCc1c-2n[nH]c1-c1[nH]nc2c1CCc1ccccc1-2 | – | > 100 | – | > 100 | – | > 100 | – | > 100 | – | – | – | > 100 | – | > 100 | > 100 | – | – | – | – |
| CCOc1ccc(NC(=O)CCc2nnc(SC)o2)cc1 | – | > 100 | – | > 100 | – | > 100 | – | > 100 | – | > 100 | – | > 100 | – | > 100 | > 100 | > 100 | – | – | – |
| COc1cc(C2(C)SCCCS2)cc(OC)c1OC | – | > 100 | – | > 100 | – | > 100 | – | > 100 | – | > 100 | – | > 100 | – | > 100 | > 100 | – | – | – | – |
| NC1=NC(=O)C(CC(=O)Nc2ccc(Cl)cc2Cl)S1 (stereo not drawn) | – | > 100 | – | > 100 | – | > 100 | – | > 100 | – | – | – | > 100 | – | > 100 | > 100 | – | – | – | – |

| SMILES | GI50 [1] [µM] | TGI [1] [µM] | GI50 [2] [µM] | TGI [2] [µM] | GI50 [3] [µM] | TGI [3] [µM] | GI50 [4] [µM] | TGI [4] [µM] | GI50 [5] [µM] | TGI [5] [µM] | GI50 [6] [µM] | TGI [6] [µM] | GI50 [7] [µM] | TGI [7] [µM] | TGI [8] [µM] | TGI [9] [µM] | GI50 [8] [µM] | GI50 [10] [µM] | TGI [10] [µM] |
| --- | --- | --- | --- | --- | --- | --- | --- | --- | --- | --- | --- | --- | --- | --- | --- | --- | --- | --- | --- |
| O=C(Cc1nc2ccccc2o1)C(=O)Nc1cccc(C(F)(F)F)c1 | – | > 100 | – | > 100 | – | > 100 | – | > 100 | – | > 100 | – | > 100 | – | > 100 | > 100 | – | – | – | – |
| Cc1cccc(NC(=O)/C(=N\N)C(c2cnc3ccc([N+](=O)[O-])cc3n2)[N+](=O)[O-])c1C (stereo not drawn) | – | – | – | > 100 | – | > 100 | – | > 100 | – | > 100 | – | > 100 | – | > 100 | > 100 | > 100 | – | – | – |
| c1cc(-c2cn3c(n2)SCC3)ccn1 | – | > 100 | – | > 100 | – | > 100 | – | > 100 | – | > 100 | – | > 100 | – | > 100 | > 100 | – | – | – | – |
| N#CC1(C#N)C(c2ccccc2)C=CC12OCCCO2 (stereo not drawn) | – | > 100 | – | > 100 | – | > 100 | – | 88.7 | – | 32.6 | – | > 100 | – | 98.1 | 91.4 | 49.2 | – | – | – |
| CC(=O)/C(=C\c1ccccc1O)C(=O)Nc1ccccc1C | – | 37.1 | – | 89.1 | – | > 100 | – | 84.9 | – | – | – | 29.3 | – | 70.1 | 37.2 | 37.5 | – | – | – |
| CCOC(=O)/C(I)=C/c1cc(OC)c(OC)c(OC)c1 | – | 20 | – | 22.5 | – | 6.73 | – | 8.6 | – | 12.9 | – | 27.8 | – | 40.3 | 14.1 | – | – | – | – |
| C[n+]1c2ccccc2nc2c(N)cc(N)cc21 | > 100 | > 100 | 14.1 | > 100 | 0.712 | 13.6 | 4.63 | 48.3 | – | – | 12.6 | 93.2 | 3 | 22.6 | 26.6 | – | 5.13 | 16 | > 100 |
| COc1ccc(-c2[nH]c3ccccc3c2CCNS(=O)(=O)c2ccc(C)cc2)cc1 | – | > 10 | – | > 10 | – | > 10 | – | > 10 | – | > 10 | – | > 10 | – | > 10 | > 10 | > 10 | – | – | – |
| CCOC(=O)C1Nc2ccccc2[C@H]2OCC[C@@H]12 (stereo partly drawn) | – | > 100 | – | > 100 | – | > 100 | – | > 100 | – | > 100 | – | > 100 | – | > 100 | > 100 | > 100 | – | – | – |
| O=Cc1ccc2c(c1I)OCO2 | – | > 100 | – | > 100 | – | – | – | > 100 | – | > 100 | – | > 100 | – | > 100 | > 100 | – | – | – | – |
| CCCC(S(=O)(=O)c1ccccc1)S(=O)(=O)c1ccccc1 | – | > 100 | – | > 100 | – | – | – | > 100 | – | – | – | > 100 | – | > 100 | > 100 | > 100 | – | – | – |
| N#CNc1nc(N)c(-c2ccc(Cl)cc2)c(C(=O)Nc2nccs2)n1 | – | > 100 | – | > 100 | – | > 100 | – | – | – | > 100 | – | > 100 | – | > 100 | > 100 | > 100 | – | – | – |
| Cc1cc2c(c(C(N)=O)c1C)-c1cc(Cl)cc(Cl)c1C2=O | – | > 100 | – | – | – | > 100 | – | > 100 | – | > 100 | – | > 100 | – | > 100 | > 100 | > 100 | – | – | – |
| CC(C)(C)c1cc2nc(c1)C(C(F)(F)F)(C(F)(F)F)OB(Br)OC2(C(F)(F)F)C(F)(F)F | – | 8.39 | – | 6.77 | – | 17.8 | – | 0.677 | – | – | – | 11.4 | – | 0.28 | 17.2 | 22 | – | – | – |
| C[CH2][Hg][S]c1ccccc1C(=O)O | 1.77 | 3.26 | 1.78 | 3.94 | 1.68 | 3.18 | 0.291 | 2.74 | – | – | 1.67 | 3.08 | 2.43 | 6.7 | 2.7 | – | 1.18 | 1.83 | 3.41 |
| CC1=C(C(=O)Nc2ccc(Cl)c(Cl)c2)C(c2ccc([N+](=O)[O-])cc2)C(C(=O)Nc2ccc(Cl)c(Cl)c2)=C(C)N1 | – | 10 | – | 15.1 | – | 14.8 | – | – | – | 8.85 | – | 4.98 | – | > 100 | 5.98 | 6.16 | – | – | – |
